Tested on: NCI-H196 SCLC complex tumor spheroid viability
Experiment: Anticancer human tumor NCI-H196 cell line growth inhibition;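 note: spheroids exposed to compounds for 7 days before readout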;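 for viability, T/C: 100% = DMSO vehicle control wells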
Conditions: for IC50: curve of first compound; for viability, T/C: stronger effect = lower value
How it was run: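 Complex tumor spheroids combined malignant cells with endothelial cells and mesenchymal stem cells. DNA-damaging drugs and DNA repair inhibitors were tested alone and in combination, at half-log dilutions down from clinical Cmax (top 10 microM if Cmax unknown), 0.25% DMSO final.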

[1] = second compound 0.003 µM, first compound 0.0316 µM
[2] = second compound 0.003 µM, first compound 0.1 µM
[3] = second compound 0.003 µM, first compound 0.316 µM
[4] = second compound 0.003 µM, first compound 1 µM
[5] = second compound 0.003 µM, first compound 3.16 µM
[6] = second compound 0.003 µM, first compound 10 µM
[7] = second compound 0.00949 µM, first compound 0.0316 µM
[8] = second compound 0.00949 µM, first compound 0.1 µM
[9] = second compound 0.00949 µM, first compound 0.316 µM
[10] = second compound 0.00949 µM, first compound 1 µM
[11] = second compound 0.00949 µM, first compound 3.16 µM
[12] = second compound 0.00949 µM, first compound 10 µM
[13] = second compound 0.03 µM, first compound 0.0316 µM
[14] = second compound 0.03 µM, first compound 0.1 µM
[15] = second compound 0.03 µM, first compound 0.316 µM
[16] = second compound 0.03 µM, first compound 1 µM
[17] = second compound 0.03 µM, first compound 3.16 µM
[18] = second compound 0.03 µM, first compound 10 µM
[19] = second compound 0.0949 µM, first compound 0.0316 µM
[20] = second compound 0.0949 µM, first compound 0.1 µM
[21] = second compound 0.0949 µM, first compound 0.316 µM
[22] = second compound 0.0949 µM, first compound 1 µM
[23] = second compound 0.0949 µM, first compound 3.16 µM
[24] = second compound 0.0949 µM, first compound 10 µM
[25] = second compound 0.3 µM, first compound 0.0316 µM
[26] = second compound 0.3 µM, first compound 0.1 µM
[27] = second compound 0.3 µM, first compound 0.316 µM
[28] = second compound 0.3 µM, first compound 1 µM
[29] = second compound 0.3 µM, first compound 3.16 µM
[30] = second compound 0.3 µM, first compound 10 µM

## CC(C)n1c(=O)n(C)c2cnc3cc(F)c(-c4ccc(OCCCN5CCCCC5)nc4)cc3c21 + CC[C@@]1(O)C(=O)OCc2c1cc1n(c2=O)Cc2cc3c(CN(C)C)c(O)ccc3nc2-1
Second compound 0.003 µM
  IC50: > 10 µM
Second compound 0.00949 µM
  IC50: > 10 µM
Second compound 0.03 µM
  IC50: > 10 µM
Second compound 0.0949 µM
  IC50: > 10 µM
Second compound 0.3 µM
  IC50: > 10 µM
[1]
  viability, T/C: 102%
[2]
  viability, T/C: 106%
[3]
  viability, T/C: 105%
[4]
  viability, T/C: 107%
[5]
  viability, T/C: 110%
[6]
  viability, T/C: 113%
[7]
  viability, T/C: 105%
[8]
  viability, T/C: 107%
[9]
  viability, T/C: 109%
[10]
  viability, T/C: 112%
[11]
  viability, T/C: 110%
[12]
  viability, T/C: 103%
[13]
  viability, T/C: 102%
[14]
  viability, T/C: 102%
[15]
  viability, T/C: 104%
[16]
  viability, T/C: 101%
[17]
  viability, T/C: 95.9%
[18]
  viability, T/C: 87.9%
[19]
  viability, T/C: 116%
[20]
  viability, T/C: 113%
[21]
  viability, T/C: 104%
[22]
  viability, T/C: 86.5%
[23]
  viability, T/C: 74.9%
[24]
  viability, T/C: 71.9%
[25]
  viability, T/C: 110%
[26]
  viability, T/C: 107%
[27]
  viability, T/C: 108%
[28]
  viability, T/C: 88.1%
[29]
  viability, T/C: 78.5%
[30]
  viability, T/C: 71.4%

## CC1COCCN1c1cc(-c2ccnn2C)c2ccnc(-c3ccn[nH]3)c2n1 (stereo not given) + CC[C@@]1(O)C(=O)OCc2c1cc1n(c2=O)Cc2cc3c(CN(C)C)c(O)ccc3nc2-1
Second compound 0.003 µM
  IC50: 4.08 µM
Second compound 0.00949 µM
  IC50: 2.26 µM
Second compound 0.03 µM
  IC50: 4.78 µM
Second compound 0.0949 µM
  IC50: 4.15 µM
Second compound 0.3 µM
  IC50: 0.334 µM
[1]
  viability, T/C: 83%
[2]
  viability, T/C: 75.1%
[3]
  viability, T/C: 68.1%
[4]
  viability, T/C: 57%
[5]
  viability, T/C: 50.6%
[6]
  viability, T/C: 47.3%
[7]
  viability, T/C: 75.4%
[8]
  viability, T/C: 69.9%
[9]
  viability, T/C: 67%
[10]
  viability, T/C: 51.4%
[11]
  viability, T/C: 52%
[12]
  viability, T/C: 45%
[13]
  viability, T/C: 70.8%
[14]
  viability, T/C: 64.9%
[15]
  viability, T/C: 60.9%
[16]
  viability, T/C: 57.6%
[17]
  viability, T/C: 50.2%
[18]
  viability, T/C: 47.6%
[19]
  viability, T/C: 62.8%
[20]
  viability, T/C: 61.5%
[21]
  viability, T/C: 61.7%
[22]
  viability, T/C: 57.1%
[23]
  viability, T/C: 50.7%
[24]
  viability, T/C: 44.3%
[25]
  viability, T/C: 55.9%
[26]
  viability, T/C: 51.7%
[27]
  viability, T/C: 48.4%
[28]
  viability, T/C: 49.1%
[29]
  viability, T/C: 43.4%
[30]
  viability, T/C: 38.5%

## COc1ccc([C@@H](O)c2cc(-c3ncnc4cc(N5CCOCC5)ccc34)c(F)cc2Cl)nn1 + CC[C@@]1(O)C(=O)OCc2c1cc1n(c2=O)Cc2cc3c(CN(C)C)c(O)ccc3nc2-1
Second compound 0.003 µM
  IC50: > 10 µM
Second compound 0.00949 µM
  IC50: > 10 µM
Second compound 0.03 µM
  IC50: 5.95 µM
Second compound 0.0949 µM
  IC50: 2.63 µM
Second compound 0.3 µM
  IC50: 2.61 µM
[1]
  viability, T/C: 100%
[2]
  viability, T/C: 99.6%
[3]
  viability, T/C: 90.8%
[4]
  viability, T/C: 82.3%
[5]
  viability, T/C: 69.2%
[6]
  viability, T/C: 55.2%
[7]
  viability, T/C: 98%
[8]
  viability, T/C: 97.1%
[9]
  viability, T/C: 95.5%
[10]
  viability, T/C: 88.9%
[11]
  viability, T/C: 65.7%
[12]
  viability, T/C: 52.8%
[13]
  viability, T/C: 93.5%
[14]
  viability, T/C: 92.3%
[15]
  viability, T/C: 88.1%
[16]
  viability, T/C: 72.5%
[17]
  viability, T/C: 58.6%
[18]
  viability, T/C: 43.5%
[19]
  viability, T/C: 99.8%
[20]
  viability, T/C: 102%
[21]
  viability, T/C: 93.5%
[22]
  viability, T/C: 70.2%
[23]
  viability, T/C: 46.2%
[24]
  viability, T/C: 39.5%
[25]
  viability, T/C: 107%
[26]
  viability, T/C: 104%
[27]
  viability, T/C: 88.8%
[28]
  viability, T/C: 71.9%
[29]
  viability, T/C: 43.1%
[30]
  viability, T/C: 37.1%

## O=C(c1cc(Cc2n[nH]c(=O)c3ccccc23)ccc1F)N1CCN(C(=O)C2CC2)CC1 + COc1cc2c(cc1O)CCNC21CSC2c3c(OC(C)=O)c(C)c4c(c3C(COC1=O)N1C(O)C3Cc5cc(C)c(OC)c(O)c5C(C21)N3C)OCO4
Second compound 30 pM
  IC50: > 30 µM
Second compound 94.9 pM
  IC50: > 30 µM
Second compound 0.0003 µM
  IC50: > 30 µM
Second compound 0.000949 µM
  IC50: > 30 µM
Second compound 0.003 µM
  IC50: < 0.0949 µM
Second compound 30 pM, first compound 0.0949 µM
  viability, T/C: 107%
Second compound 30 pM, first compound 0.3 µM
  viability, T/C: 105%
Second compound 30 pM, first compound 0.949 µM
  viability, T/C: 101%
Second compound 30 pM, first compound 3 µM
  viability, T/C: 98.9%
Second compound 30 pM, first compound 9.49 µM
  viability, T/C: 85.5%
Second compound 30 pM, first compound 30 µM
  viability, T/C: 67.2%
Second compound 94.9 pM, first compound 0.0949 µM
  viability, T/C: 104%
Second compound 94.9 pM, first compound 0.3 µM
  viability, T/C: 102%
Second compound 94.9 pM, first compound 0.949 µM
  viability, T/C: 102%
Second compound 94.9 pM, first compound 3 µM
  viability, T/C: 93.7%
Second compound 94.9 pM, first compound 9.49 µM
  viability, T/C: 91.5%
Second compound 94.9 pM, first compound 30 µM
  viability, T/C: 62.7%
Second compound 0.0003 µM, first compound 0.0949 µM
  viability, T/C: 99.6%
Second compound 0.0003 µM, first compound 0.3 µM
  viability, T/C: 105%
Second compound 0.0003 µM, first compound 0.949 µM
  viability, T/C: 99.5%
Second compound 0.0003 µM, first compound 3 µM
  viability, T/C: 92%
Second compound 0.0003 µM, first compound 9.49 µM
  viability, T/C: 84.3%
Second compound 0.0003 µM, first compound 30 µM
  viability, T/C: 66%
Second compound 0.000949 µM, first compound 0.0949 µM
  viability, T/C: 86.4%
Second compound 0.000949 µM, first compound 0.3 µM
  viability, T/C: 86.9%
Second compound 0.000949 µM, first compound 0.949 µM
  viability, T/C: 80.7%
Second compound 0.000949 µM, first compound 3 µM
  viability, T/C: 78.5%
Second compound 0.000949 µM, first compound 9.49 µM
  viability, T/C: 68.9%
Second compound 0.000949 µM, first compound 30 µM
  viability, T/C: 54.4%
Second compound 0.003 µM, first compound 0.0949 µM
  viability, T/C: 3.15%
Second compound 0.003 µM, first compound 0.3 µM
  viability, T/C: 6.44%
Second compound 0.003 µM, first compound 0.949 µM
  viability, T/C: 3.39%
Second compound 0.003 µM, first compound 3 µM
  viability, T/C: 1.87%
Second compound 0.003 µM, first compound 9.49 µM
  viability, T/C: 0.89%
Second compound 0.003 µM, first compound 30 µM
  viability, T/C: 1.4%

Source: PubChem BioAssay AID1845208 (Molecular Pharmacology Branch, DTP, NCI, 2023)
